The series concerns the target HSD17B13. The conditions noted are these: ASO, HepaRG.

Among the data in the OligoGym collection are target mRNA inhibition values, retold here.

Where “and” joins values, the source holds several entries; their conditions need not be identical. Equal entries are not always repeated. After the bases stand the sugars from the 5' end (letter, count) and the backbone: PS all phosphorothioate, else s phosphorothioate and o phosphodiester by linkage. Methylation of C is not given here. e = 2'-O-(2-methoxyethyl) (MOE); k = constrained ethyl (cEt); d = 2'-deoxy (DNA); m = 2'-O-methyl

Regarding GGATTAATCATGGGAC (sugars k3 d10 k3, PS), the target mRNA inhibition (1 µM) is 44%.

TGGGTCCATTGTTTCT (sugars k3 d10 k3, PS) displayed a target mRNA inhibition (1 µM) of 35%.

In turn, TTATGTGATTGAGTTC (sugars k3 d10 k3, PS) yielded a target mRNA inhibition (1 µM) of 34%.

Sequence “AGCAGAATTGTGAACG (sugars k3 d9 k3 e1, PS)” showed a target mRNA inhibition (1 µM) of 56%.

Consider ATATTCTGTGGCATGG (sugars k3 d10 k3, PS), for which, under “1 µM”, the target mRNA inhibition worked out at 69%.

CACCACGATTGTTACA (sugars k3 d10 k3, PS) showed a target mRNA inhibition (1 µM) of 36%.

Under “1 µM”, ACTGATTTAGTTGGTA (sugars k3 d10 k3, PS) had a target mRNA inhibition of 55%.

On to “AAAATAGAGTCGGTCA (sugars kkdddddddddkekek, PS)”, for which the target mRNA inhibition (1 µM) came out at 53%.

On to “AGATAAAGCTGCCTGC (sugars kkdddddddddkekek, PS)”, for which the target mRNA inhibition (1 µM) came to 30%.

For the sequence “AATATTGAGGCACTGG (sugars k3 d9 k3 e1, PS)”, where the note is “1 µM”, the target mRNA inhibition came out at 36%.

For CAGAAGTTTTTAAGAG (sugars k3 d10 k3, PS), the target mRNA inhibition (1 µM) turned out to be 30%.

“AGTCGGTCACCTTTCA (sugars kkdddddddddkekek, PS)” came in with a target mRNA inhibition (1 µM) of 55%.

As for TCCATTATCCTTACTC (sugars k3 d10 k3, PS), the target mRNA inhibition (1 µM) is 15%.

Regarding CTAGTGGTAATGGTAA (sugars k3 d10 k3, PS), the target mRNA inhibition (1 µM) stood at 62%.

As for ACATAGACATGTGTTC (sugars k3 d10 k3, PS), for the setting “1 µM”, the target mRNA inhibition stood at 35%.

For TGCAACTTTTAGTCAG (sugars k3 d10 k3, PS), the target mRNA inhibition (1 µM) was 41%.

As to ACACTAATCTCAGTAC (sugars k3 d10 k3, PS), where the note is “1 µM”, the target mRNA inhibition came out at 6%.

In the case of TTGCACCGTTTTGGGC (sugars k3 d10 k3, PS), under “1 µM”, the target mRNA inhibition was found to be 45%.

For ACGCATGCGCAGTGAC (sugars k3 d10 k3, PS), the target mRNA inhibition (1 µM) amounted to 52%.

On to CAGATTGGAATGCTAC (sugars k3 d10 k3, PS), for which the target mRNA inhibition (0.02 µM) was 7%; the target mRNA inhibition (0.078 µM) amounted to 12%; the target mRNA inhibition (0.313 µM) came out at 36%; the target mRNA inhibition (1 µM) was determined as 74%; the target mRNA inhibition (1.25 µM) turned out to be 73%; the target mRNA inhibition (5 µM) is 94%.

Sequence “ACTACAAGAGGTTATT (sugars k3 d1 m1 d8 k3, PS)” gave a target mRNA inhibition (1 µM) of 29%.

GTTGATATTCTGTGGC (sugars k3 d10 k3, PS): the target mRNA inhibition was determined as 23% (0.02 µM); 42% (0.078 µM); 53% (0.313 µM); 80% (1 µM); 87% (1.25 µM); 93% (5 µM).

As to GCACCAACTATGTAAT (sugars k3 d10 k3, PS), the target mRNA inhibition (1 µM) came to 53%.

Sequence TAACTGAGCTAGACAA (sugars k3 d10 k3, PS) gave a target mRNA inhibition (1 µM) of 53%.

GGTCATTTAGAATACG (sugars k3 d10 k3, PS) displayed a target mRNA inhibition (1 µM) of 39%.

Where the note is “1 µM”, GTTTTGCAAGTTTATC (sugars k3 d10 k3, PS) yielded a target mRNA inhibition of 73%.

Sequence CTTTTAGGGAGGTAGC (sugars k3 d10 k3, PS) had a target mRNA inhibition (1 µM) of 62%.

Regarding CGTAAATATTCTTGAG (sugars k3 d10 k3, PS), for the setting “1 µM”, the target mRNA inhibition is 61%.

Sequence CATACCACATACCCAT (sugars k3 d10 k3, PS) gave a target mRNA inhibition (1 µM) of 0%.

Turning to GAGCGATAGATCTCTT (sugars k3 d10 k3, PS), under “1 µM”, the target mRNA inhibition came to 0%.

GATCTCTTAGCTGTGC (sugars k3 d10 k3, PS) had a target mRNA inhibition (1 µM) of 64%.

TATTCACCACGATTGT (sugars k3 d10 k3, PS) displayed a target mRNA inhibition (1 µM) of 2%.

Under “1 µM”, CTAAACCCTGGAGCAG (sugars k3 d10 k3, PS) returned a target mRNA inhibition of 42%.

Consider GTTCAGTCCTTGTGTA (sugars k3 d10 k3, PS), for which, where the note is “1 µM”, the target mRNA inhibition was 38%.

Where the note is “1 µM”, “CAGCATCAAGACATTC (sugars kkdddddddddkekek, PS)” had a target mRNA inhibition of 62%.

Sequence CCTTATGTTATCTCAA (sugars k3 d10 k3, PS) showed a target mRNA inhibition (1 µM) of 67%.

Under “1 µM”, AGCCAAACTGCTACTG (sugars k3 d10 k3, PS) showed a target mRNA inhibition of 78%.

AAATCTTGTGTAACTG (sugars k3 d10 k3, PS) registered a target mRNA inhibition (1 µM) of 41%.

For the sequence CATATCAATGCCTTAG (sugars k3 d10 k3, PS), the target mRNA inhibition (1 µM) amounted to 29%.

Regarding “AGCAGAATTGTGAACG (sugars k3 d1 m1 d8 k3, PS)”, for the setting “1 µM”, the target mRNA inhibition amounted to 51%.

In the case of “TATCAGACTTCTTACG (sugars k3 d9 k3 e1, PS)”, the target mRNA inhibition (1 µM) was 28%.

The sequence AATACTCCCCAATTGC (sugars k3 d10 k3, PS) showed a target mRNA inhibition (1 µM) of 0%.

Under “1 µM”, TTTTATTATGAGGATC (sugars k3 d10 k3, PS) returned a target mRNA inhibition of 18%.

Sequence TGCACCGTTTTGGGCT (sugars k3 d10 k3, PS) showed a target mRNA inhibition (1 µM) of 36%.

With “CATAACTTCATAGTGG (sugars k3 d1 m1 d8 k3, PS)”, the target mRNA inhibition (1 µM) was found to be 38%.

In the case of GCTTAGTTCATTGTGA (sugars k3 d10 k3, PS), the target mRNA inhibition (1 µM) was determined as 45%.

Take TGCAATGAGATTACCC (sugars k3 d10 k3, PS): the target mRNA inhibition (1 µM) came out at 54%.

In the case of “TCTCUTAGCTGTGCAC (sugars k3 d1 m1 d8 k3, PS)”, the target mRNA inhibition (1 µM) is 49%.

Regarding ATATCCAGTAGGTGTG (sugars k3 d10 k3, PS), for the setting “1 µM”, the target mRNA inhibition was found to be 55%.

In the case of TGCTGCATTAATGCCA (sugars k3 d10 k3, PS), the target mRNA inhibition (1 µM) was 15%.

The sequence “CAGGGTGGTAACGGTG (sugars k3 d9 k3 e1, PS)” yielded a target mRNA inhibition (1 µM) of 39%.

As to ATAGAACTAGAACTCC (sugars k3 d10 k3, PS), the target mRNA inhibition (1 µM) is 22%.

Turning to AGACATGAGGTTTTGA (sugars k3 d10 k3, PS), the target mRNA inhibition (1 µM) worked out at 59%.

Where the note is “1 µM”, TAAAAAATTGGTTTCG (sugars k3 d10 k3, PS) yielded a target mRNA inhibition of 22%.

Turning to TATCAAAATGGTGGCG (sugars k3 d10 k3, PS), the target mRNA inhibition (1 µM) came out at 18%.

GAAAAAGGTTATCATG (sugars k3 d10 k3, PS) registered a target mRNA inhibition (1 µM) of 31%.

TTGATGTAGTGGGAGT (sugars k3 d10 k3, PS) had a target mRNA inhibition (1 µM) of 68%.

For the setting “1 µM”, TAGTGTAGAATTGTCT (sugars k3 d10 k3, PS) yielded a target mRNA inhibition of 46%.

For the sequence “TGCACCGTTTTGGGCT (sugars k3 d9 k3 e1, PS)”, the target mRNA inhibition (1 µM) was determined as 43%.

TCCATCATCGATGGAA (sugars k3 d10 k3, PS) had a target mRNA inhibition (1 µM) of 31%.

For the sequence ATTTAGTTGGTAGCTT (sugars k3 d10 k3, PS), the target mRNA inhibition (1 µM) was 35%.

CGTAACCATGCATTAA (sugars k3 d10 k3, PS) displayed a target mRNA inhibition (1 µM) of 68%.

On to CGGCCTATTCTTCTGT (sugars k3 d10 k3, PS), for which the target mRNA inhibition (1 µM) is 25%.

Take AACCTATGTGTGCACC (sugars k3 d10 k3, PS): where the note is “1 µM”, the target mRNA inhibition was found to be 73%.

On to “CGGTCACCTTTCATAA (sugars kkdddddddddkekek, PS)”, for which the target mRNA inhibition (1 µM) is 70%.

Sequence GCTTTTGTGATCCAAA (sugars k3 d10 k3, PS) registered a target mRNA inhibition (1 µM) of 43%.

For ATATACTGTCCCAGCA (sugars k3 d10 k3, PS), the target mRNA inhibition (1 µM) was determined as 43%.

AATTGTCTAAACATCT (sugars k3 d10 k3, PS) yielded a target mRNA inhibition (1 µM) of 62%.

“AGTGCATCTTAAGATA (sugars k3 d1 m1 d8 k3, PS)”: the target mRNA inhibition (1 µM) is 17%.

For the sequence ACCTTATTAATATCCC (sugars k3 d10 k3, PS), the target mRNA inhibition was 0% (0.02 µM); 0% (0.078 µM); 0% (0.313 µM); 71% and 50% (1 µM); 72% (1.25 µM); 90% (5 µM).

For the sequence ATATACTAGGATTAGA (sugars k3 d10 k3, PS), for the setting “1 µM”, the target mRNA inhibition was 33%.

The sequence CAACGCAACAGTTTAG (sugars k3 d10 k3, PS) returned a target mRNA inhibition (1 µM) of 52%.

Turning to GATGCTCCATAATAAT (sugars k3 d10 k3, PS), the target mRNA inhibition (1 µM) turned out to be 42%.

Sequence GGATTAATTCCCTTCC (sugars k3 d10 k3, PS) had a target mRNA inhibition (1 µM) of 10%.

For CTAGGGAAATCTTTCA (sugars k3 d10 k3, PS), the target mRNA inhibition (1 µM) was determined as 48%.

GAATAGGAGAGTCTTT (sugars k3 d10 k3, PS) registered a target mRNA inhibition (1 µM) of 58%.

The sequence “AGAATAGAGTTGCACC (sugars kkdddddddddkekek, PS)” showed a target mRNA inhibition (1 µM) of 59%.

CTAATCTCAGTACTCC (sugars k3 d10 k3, PS) showed a target mRNA inhibition (1 µM) of 53%.

For the sequence CCACTGGATGGATTTC (sugars k3 d10 k3, PS), where the note is “1 µM”, the target mRNA inhibition is 68%.

Under “1 µM”, CTAAATTATTGCCTGA (sugars k3 d10 k3, PS) registered a target mRNA inhibition of 39%.

Sequence AATGAGGCGGCACTCA (sugars k3 d10 k3, PS) registered a target mRNA inhibition (1 µM) of 20%.

In turn, GTCCCAGCATTATTCA (sugars k3 d10 k3, PS) yielded a target mRNA inhibition (1 µM) of 21%.

In turn, ATTCTGTGGCATGGCT (sugars k3 d10 k3, PS) returned a target mRNA inhibition (1 µM) of 69%.

AAAACATTGCTCTTCG (sugars k3 d10 k3, PS): the target mRNA inhibition (1 µM) was 59%.

As to CATAGTTCAAATTGGA (sugars k3 d10 k3, PS), the target mRNA inhibition (1 µM) came to 39%.

TAATCATGGGACAGGA (sugars k3 d10 k3, PS) came in with a target mRNA inhibition (1 µM) of 15%.

On to GACCATGCTGCTACTC (sugars k3 d10 k3, PS), for which the target mRNA inhibition (1 µM) amounted to 74%.

Where the note is “1 µM”, “GTCCAGGTTGAGATAA (sugars kkdddddddddkekek, PS)” displayed a target mRNA inhibition of 36%.

Under “1 µM”, “TTGCAGAAATTCACCT (sugars k3 d9 k3 e1, PS)” yielded a target mRNA inhibition of 29%.

As for TATTATCAGGACTGAA (sugars k3 d10 k3, PS), the target mRNA inhibition (1 µM) worked out at 63%.
